From patent publication US6534524B1, “Indazole compounds and pharmaceutical compositions for inhibiting protein kinases, and methods for their use” (Agouron Pharmaceuticals, Inc., priority 1999, dated 2003)
Where “and” joins values, the source holds several entries; their conditions need not be identical. Identical values can stand only once. Like-named read-outs stand apart in the source and are kept apart here. Marks after values point to notes of the source that are not given here.

Columns and labels:
[1] = biological target: CDK4/Cyclin D3 complex (Homo sapiens, UniProt P11802); assay: CDK4/Cyclin D assay ([32P]ATP, Rb fragment)
[2] = biological target: unphosphorylated VEGF-R2Δ50 (FLVK) (Homo sapiens, UniProt P35968, DEL940-989/E990V); assay: VEGF-R2 coupled spectrophotometric assay, unphosphorylated VEGF-R2Δ50 (FLVK); details: for Ki: FLVK Ki, Table 1; for inhibition at 0.05 µM: read-out: FLVK % inhibition
[3] = tested on: human umbilical vein endothelial cells (HUVEC); assay: HUVEC proliferation assay (VEGF-stimulated, MTT); format: cell-based; details: Homo sapiens, HUVEC
[4] = biological target: CDK2/Cyclin A (Homo sapiens, UniProt P24941); assay: CDK2/Cyclin A assay ([32P]ATP, Rb fragment); format: biochemical
[5] = biological target: phosphorylated VEGF-R2Δ50 (FLVK-P) (Homo sapiens, UniProt P35968, DEL940-989/E990V); assay: VEGF-R2 coupled spectrophotometric assay, phosphorylated VEGF-R2Δ50 (FLVK-P)
[6] = biological target: T1, human CHK1 (FL-CHK1) (Homo sapiens, UniProt O14757); assay: CHK1 assay (coupled spectrophotometric, Syntide-2); format: biochemical
T1 construct: C-terminally His-tagged full-length human CHK1 (FL-CHK1); made in house; host or cells: baculovirus/insect cell system
T1 sequence (O14757 1-476): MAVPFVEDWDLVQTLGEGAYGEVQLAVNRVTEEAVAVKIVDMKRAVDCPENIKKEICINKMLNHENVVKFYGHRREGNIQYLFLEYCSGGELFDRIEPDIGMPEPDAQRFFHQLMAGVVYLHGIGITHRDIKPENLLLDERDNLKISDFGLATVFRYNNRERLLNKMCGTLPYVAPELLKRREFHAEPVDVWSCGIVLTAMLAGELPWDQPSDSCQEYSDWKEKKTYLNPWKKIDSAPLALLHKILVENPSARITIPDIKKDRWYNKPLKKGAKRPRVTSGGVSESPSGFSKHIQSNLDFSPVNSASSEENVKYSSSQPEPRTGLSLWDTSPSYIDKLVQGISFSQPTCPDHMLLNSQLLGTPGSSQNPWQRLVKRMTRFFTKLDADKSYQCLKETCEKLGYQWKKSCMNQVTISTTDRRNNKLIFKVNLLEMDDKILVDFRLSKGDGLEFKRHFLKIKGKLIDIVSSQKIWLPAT
Outline: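 Full-length C-terminally His-tagged human CHK1 expressed in baculovirus/insect cells, used at 10 nM with Syntide-2 substrate. ADP formation coupled via PK/LDH to NADH oxidation, followed as absorbance decrease at 340 nm. Ki from initial rates at varying compound concentrations.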

[7] = biological target: human FGF-R1 (Homo sapiens, UniProt P11362, C488A/C584S/L457V); assay: FGF-R spectrophotometric assay; details: for inhibition at 1 µM: read-out: FGF-P % inhibition, Table 1
[8] = Human liver microsome (HLM) assay; format: in vitro ADME; details: human liver microsomes, 5 μM test compound
Outline: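 Compound metabolism in human liver microsomes measured in triplicate. Samples at 0 and 2 h centrifuged at 14000 g for 10 min and analysed by LC-MS.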

[9] = biological target: T2, LCK tyrosine kinase (Homo sapiens, UniProt P06239, C224D/P223M); assay: LCK spectrophotometric assay; format: biochemical; details: Table 1, compound concentration 1 μM; for inhibition at 1 µM: read-out: Lck-P % inhibition
T2 construct: starting from amino acid residue 223 to the end of the protein at residue 509; made in house; host or cells: insect cells
Protocol: The production of ADP from ATP that accompanies phosphoryl transfer was coupled to oxidation of NADH using phosphoenolpyruvate (PEP) and a system having pyruvate kinase (PK) and lactic dehydrogenase (LDH). The oxidation of NADH was monitored by following the decrease of absorbance at 340 nm (e340=6.22 cm^−1 mM^−1) using a Beckman DU 650 spectrophotometer. […] Ki values were determined by measuring enzyme activity in the presence of varying concentrations of test compounds. The data were analyzed using Enzyme Kinetic and Kaleidagraph software.
The spectrophotometric assay was carried out as described above for VEGF-R2, except for the following changes in concentration: LCK=60 nM, MgCl2=0 mM, poly(E4Y1)=20 mM.

[10] = Determination of inhibitor concentration in mouse plasma after intraperitoneal and oral dosing; format: in vivo
Outline: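 Mice dosed intraperitoneally or orally; blood taken by ocular bleed at 0.5, 1 and 4 h and by intracardiac puncture at 7 h. Plasma extracted with ethyl acetate after internal standard and NaOH addition, analysed by HPLC or LC-MS against a mouse-plasma standard curve.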

[11] = + albumin, read-out: HUVEC + albumin IC50
[12] = PO, 25 mg/kg, vehicle PEG400:H2O pH 2.3 30:70
[13] = female, PO, 25 mg/kg, vehicle PEG400:H2O pH 2.3 30:70, read-out: Cmin (7 hr conc.)
[14] = IP, 25 mg/kg, vehicle PEG400:H2O pH 2.3 60:40
[15] = PO, 50 mg/kg, vehicle PEG400:H2O pH 2.3 60:40
[16] = IP, 25 mg/kg, vehicle PEG400:H2O pH 2.3 30:70
[17] = PO, 50 mg/kg, vehicle PEG400:H2O pH 2.3 30:70

unphosphorylated VEGF-R2Δ50 (FLVK), sequence (P35968 with tags, fused parts or gaps DEL940-989/E990V limits assumed): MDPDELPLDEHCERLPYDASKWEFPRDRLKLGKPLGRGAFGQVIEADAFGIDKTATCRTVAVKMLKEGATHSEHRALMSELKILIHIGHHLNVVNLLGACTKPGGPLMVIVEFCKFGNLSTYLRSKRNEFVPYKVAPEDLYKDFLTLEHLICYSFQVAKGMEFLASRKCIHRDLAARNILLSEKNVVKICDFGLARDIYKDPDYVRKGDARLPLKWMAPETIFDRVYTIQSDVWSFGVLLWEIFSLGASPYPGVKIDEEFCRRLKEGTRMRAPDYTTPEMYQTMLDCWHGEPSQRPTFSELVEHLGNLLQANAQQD
phosphorylated VEGF-R2Δ50 (FLVK-P), sequence (P35968 with tags, fused parts or gaps DEL940-989/E990V limits assumed): as above
human FGF-R1, sequence (P11362 456-766 L457V/C488A/C584S): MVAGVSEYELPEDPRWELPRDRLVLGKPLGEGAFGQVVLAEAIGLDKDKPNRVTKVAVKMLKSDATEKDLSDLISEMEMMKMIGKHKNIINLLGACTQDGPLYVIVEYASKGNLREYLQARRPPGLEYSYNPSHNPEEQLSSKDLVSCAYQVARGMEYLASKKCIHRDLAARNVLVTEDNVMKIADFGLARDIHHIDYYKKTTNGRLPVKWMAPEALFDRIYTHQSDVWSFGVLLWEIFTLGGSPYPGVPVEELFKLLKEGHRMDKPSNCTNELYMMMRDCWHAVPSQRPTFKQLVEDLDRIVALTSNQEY
T2 sequence (P06239 223-509 P223M/C224D): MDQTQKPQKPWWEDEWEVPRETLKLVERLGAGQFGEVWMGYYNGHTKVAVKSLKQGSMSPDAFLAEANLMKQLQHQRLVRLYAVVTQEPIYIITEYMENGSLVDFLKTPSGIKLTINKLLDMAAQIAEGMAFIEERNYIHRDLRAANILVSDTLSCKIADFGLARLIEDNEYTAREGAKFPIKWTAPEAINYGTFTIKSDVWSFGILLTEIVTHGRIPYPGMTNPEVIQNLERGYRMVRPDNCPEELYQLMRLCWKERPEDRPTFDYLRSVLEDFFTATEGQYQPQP
CDK4/Cyclin D3 complex, sequence (P11802 whole entry, the tested form may be a part): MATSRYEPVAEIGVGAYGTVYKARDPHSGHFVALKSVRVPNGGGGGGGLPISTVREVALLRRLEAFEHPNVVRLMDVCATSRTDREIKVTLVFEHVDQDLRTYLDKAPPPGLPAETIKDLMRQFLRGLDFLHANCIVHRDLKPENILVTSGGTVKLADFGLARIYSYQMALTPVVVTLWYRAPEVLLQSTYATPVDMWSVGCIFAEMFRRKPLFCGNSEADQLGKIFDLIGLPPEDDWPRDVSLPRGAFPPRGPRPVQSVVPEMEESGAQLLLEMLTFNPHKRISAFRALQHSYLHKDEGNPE
CDK4/Cyclin D3 complex, sequence (P30281 whole entry partner, the tested form may be a part): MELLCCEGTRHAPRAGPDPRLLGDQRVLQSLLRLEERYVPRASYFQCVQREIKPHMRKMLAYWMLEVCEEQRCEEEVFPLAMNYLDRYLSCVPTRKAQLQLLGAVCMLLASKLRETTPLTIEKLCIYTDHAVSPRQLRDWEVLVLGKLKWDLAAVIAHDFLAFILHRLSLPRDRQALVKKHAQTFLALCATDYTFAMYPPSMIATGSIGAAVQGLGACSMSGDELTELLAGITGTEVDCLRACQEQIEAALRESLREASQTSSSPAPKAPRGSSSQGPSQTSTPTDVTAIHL

Row | SMILES | Ki [2] | Ki [5] [nM] | Ki [7] [nM] | inhibition at 1 µM ([7]; compound concentration 1 μM) [%] | inhibition at 1 µM [9] [%] | IC50 [3, 11] [nM] | inhibition at 0.05 µM [2] [%] | further results
1 | C=CCOc1cc(-c2ccc3c(/C=C/c4ccc(OC)c(OC)c4)n[nH]c3c2)ccc1O [Example 1(c), 3-[E-2-(3,4-Dimethoxy-phenyl)vinyl]-6-(3-allyloxy-4-hydroxy-phenyl)-1H-indazole] | 1.4 nM | 4.7 | – | – | – | – | – | Ki [1]: 670 nM; IC50 ([3]; read-out: HUVEC IC50): > 1000 nM; Ki ([4]; Table 1): 560 nM; Ki ([6]; Table 1, read-out: CHK-1 Ki): 78 nM
2 | CC(=O)Nc1cccc(Oc2ccc3c(/C=C/c4ccccc4)n[nH]c3c2)c1 [Example 4(b), N-[3-(3-Styryl-1H-indazol-6-yloxy)-phenyl]-acetamide] | 2.7 nM | 1.9 | 49 | – | – | – | – | –
3 | C(=C\c1n[nH]c2cc(Oc3ccccc3)ccc12)/c1ccccc1 [Example 8(a), 3-(E-Styryl)-6-phenoxy-1H-indazole] | 3.2 nM | 23 | 42 | – | – | – | – | Ki ([6]; Table 1, read-out: CHK-1 Ki): 530 nM
4 | CC(=O)Nc1cccc(N(C)c2ccc3c(/C=C/c4ccccc4)n[nH]c3c2)c1 [Example 12(a), N-{3-[Methyl-(3-styryl-1H-indazol-6-yl)-amino]-phenyl}-acetamide] | 1.8 nM | 6.9 | 19 | – | – | – | – | % remain (HLM, 2 h) [8]: 59%
5 | CN(c1cccc(NC(=O)c2ccccc2)c1)c1ccc2c(/C=C/c3ccccc3)n[nH]c2c1 [Example 12(b), N-{3-[Methyl-(3-styryl-1H-indazol-6-yl)-aimino]-phenyl}-benzamide] | 0.48 nM | 1.8 | 31 | – | – | – | – | –
6 | COc1cc(O)ccc1-c1ccc2c(-c3nc4ccccc4[nH]3)n[nH]c2c1 [Example 24(d), 3-1H-Benzoimidazol-2-yl-6-(4-hydroxy-2-methoxyphenyl)-1H-indazole] | – | 125 | – | – | – | – | – | Ki [1]: 17 nM; Ki ([4]; Table 2): 83 nM; Ki ([6]; Table 2): 56 nM
7 | C#CCNC(=O)c1ccccc1Nc1ccc2c(/C=C/c3ccccn3)n[nH]c2c1 [Example 39(b), 6-[2-(Prop-2-ynylcarbamoyl)phenylamino]-3-E-[2-(pyridin-2-yl)ethenyl]-1H-indazole] | – | – | – | 50 | 10 | > 10 | – | plasma half-life (T1/2) [10, 12]: 11.8 h; AUC(0-t) ([10]; female, PO, 25 mg/kg, vehicle PEG400:H2O pH 2.3 30:70): > 31000 ng·h/mL; Cmax ([10]; female, PO, 25 mg/kg, vehicle PEG400:H2O pH 2.3 30:70, read-out: Cmax): > 5000 ng/mL; concentration at 7 h [10, 13]: 3150 ng/mL
8 | O=C(c1cccc(NC(=O)c2ccccn2)c1)c1ccc2c(/C=C/c3ccccn3)n[nH]c2c1 [Example 41(aa), 6-[3-(Pyridin-2-ylcarboxamido)benzoyl]-3-E-[2-(pyridin-2-yl)ethenyl]-1H-indazole] | 0.11 nM | – | – | 37 | 49 | 5.2 | – | IC50 ([3]; read-out: HUVEC IC50): 1 nM; AUClast [10, 14]: 6659 ng·h/mL; plasma half-life (T1/2) [10, 14]: 2.1 h; AUClast [10, 15]: 289 ng·h/mL; plasma half-life (T1/2) [10, 15]: 0.9 h; concentration at 7 h ([10]; female, IP, 25 mg/kg, vehicle PEG400:H2O pH 2.3 60:40, read-out: Cmin (7 hr conc.)): 124 ng/mL; concentration at 7 h ([10]; female, PO, 50 mg/kg, vehicle PEG400:H2O pH 2.3 60:40, read-out: Cmin (7 hr conc.)): 5 ng/mL
9 | CCCn1nc(C)cc1C(=O)Nc1cc(C(=O)c2ccc3c(/C=C/c4ccccn4)n[nH]c3c2)ccc1C [Example 41(ii), 6-[3-((1-n-Propyl-3-methyl-1H-pyrazol-5-yl)carboxamido)-4-methylbenzoyl]-3-E-[2-(pyridin-2-yl)ethenyl]-1H-indazole] | – | – | 11 | – | 18 | 13 | 57 | AUClast [10, 12]: 7094 ng·h/mL; Cmax [10, 12]: 1826 ng/mL; plasma half-life (T1/2) [10, 12]: 2.3 h; concentration at 7 h [10, 13]: 346 ng/mL
10 | Cc1cnccc1C(=O)Nc1cccc(C(=O)c2ccc3c(/C=C/c4ccccn4)n[nH]c3c2)c1 [Example 41(j), 6-[3-((3-Methylpyridin-4-yl)carboxamido)benzoyl]-3-E-[2-(pyridin-2-yl)ethenyl]-1H-indazole] | – | – | – | 41 | 16 | 7.7 | 98 | AUClast [10, 12]: 1476 ng·h/mL; plasma half-life (T1/2) [10, 12]: 1.3 h; concentration at 7 h [10, 13]: 17 ng/mL
11 | O=C(c1cccc(NC(=O)C2C[C@H]2c2ccccc2)c1)c1ccc2c(/C=C/c3ccccn3)n[nH]c2c1 (stereo partly drawn) [Example 41(l), 6-[3-((2-RS-trans-Phenylcyclopropyl)carboxamido)benzoyl]-3-E-[2-(pyridin-2-yl)ethenyl]-1H-indazole] | 0.04 nM and 0.24 nM | – | – | 76 | – | – | – | FGF-P % inhibition ([7]; Table 1, compound concentration 1 μM, 1 µM): 66%; Lck-P % inhibition ([9]; 1 µM): 38%* and 63%*; AUClast [10, 16]: 1854 ng·h/mL; Cmax [10, 16]: 623 ng/mL; plasma half-life (T1/2) [10, 16]: 3.1 h; AUClast [10, 17]: 212 ng·h/mL; Cmax [10, 17]: 104 ng/mL; plasma half-life (T1/2) [10, 17]: 0.5 h; concentration at 7 h ([10]; female, IP, 25 mg/kg, vehicle PEG400:H2O pH 2.3 30:70, read-out: Cmin (7 hr conc.)): 102 ng/mL; concentration at 7 h ([10]; female, PO, 50 mg/kg, vehicle PEG400:H2O pH 2.3 30:70, read-out: Cmin (7 hr conc.)): 0 ng/mL
12 | CCn1nc(C)cc1C(=O)Nc1cc(C(=O)c2ccc3c(/C=C/c4ccccn4)n[nH]c3c2)c(C)cc1C [Example 41(ll), 6-[2,4-Dimethyl-5-((1-Ethyl-3-methyl-1H-pyrazol-5-yl)carboxamido)benzoyl]-3-E-[2-(pyridin-2-yl)ethenyl]-1H-indazole] | – | – | – | 91 | 14 | 23 | 95 | –
13 | O=C(Nc1cc(Nc2ccc3c(/C=C/c4ccccc4)n[nH]c3c2)ccc1F)c1ccccc1 [Example 47, 6-[N-(3-Benzamido-4-fluorophenyl)amino]-3-E-styryl-1H-indazole] | 0.25 nM | – | – | 88 | 50 | – | – | AUClast [10, 16]: 236 ng·h/mL; Cmax [10, 16]: 39 ng/mL; plasma half-life (T1/2) [10, 16]: 19.9 h; AUClast [10, 17]: 327 ng·h/mL; Cmax [10, 17]: 84 ng/mL; plasma half-life (T1/2) [10, 17]: 3.4 h
14 | Cc1cc(C(=O)Nc2cccc(Oc3ccc4c(/C=C/c5ccccn5)n[nH]c4c3)c2)n(C)n1 [Example 57, 6-[3-((1,3-Dimethyl-1H-pyrazol-5-yl)carboxamido)phenoxy]-3-E-[2-(pyridin-2-yl)ethenyl]-1H-indazole] | – | – | – | 89 | 30 | – | 100 | –
15 | CCn1nc(C)cc1C(=O)Nc1cc(Oc2ccc3c(/C=C/c4ncc[nH]4)n[nH]c3c2)ccc1C [Example 58] | – | – | – | 98 | 19 | – | 98 | –
